Results as given in publication PMC9046208, “Foldamers reveal and validate therapeutic targets associated with toxic α-synuclein self-assembly” (Nature Communications, 2022).

Key:
αS oligomers = target: T1, αS oligomers (Homo sapiens, UniProt P37840); test: Gel shift assay of αS supernatant (oligomers); type: biochemical; conditions: 70 µM αS, 0.1, 0.2, 0.5 mol eq. ligand, 7 days
T1 construct: made in house; host or cells: Escherichia coli BL21(DE3), periplasm
Protocol: Supplementary Fig. 8. Gel-shift images of αS (70 µM) incubated in the absence (lane 2) and presence of SK-129 (a) and EGCG (b) at sub-stoichiometric ratios (0.1, 0.2, 0.5 mol eq.) for 7 days at 370C with constant shaking. The solutions of αS in the absence and presence of ligands were centrifuged and the supernatant was used for the gel shift assay. The arrows indicate the formation of various αS structures. The gel shift assay of the supernatant of the αS aggregated […]
fibers. Most of the αS was found in the supernatant as a mo nomer and a dimer in the presence of […]
their formation. The gel experiments were conducted at least two times to confirm the reproducibility of the data.
(1 picture or pasted object on this page, not shown here)

[1] = target: T2, αS seeds extracted from PD brain (Homo sapiens, UniProt P37840); test: PMCA assay with αS seeds from PD brain (PK digestion, western blot); type: biochemical; conditions: SK-129 equimolar
T2 construct: Synuclein Residues (1-140); made in house; host or cells: Monomer: Escherichia coli BL21(DE3), WT αS in pET11 (Addgene); Seeds: fixed human substantia nigra tissue from post mortem PD brain
Excerpt: Fixed brain tissues were obtained from the Carroll A. Campbell, Jr. Neuropathology Lab (CCNL) brain bank at the Medical University of South Carolina (Dr. Steve Carroll, Director) and from Dr. Greg Gerhardt’s laboratory at the University of Kentucky. The seeds were extracted from the post mortem brain by following a published protocol with a slight modification. The brain was sliced in 1 cm slabs as soon as possible to avoid long post mortem intervals and fixed free-floating in a solution of 4% paraformaldehyde in 1x PBS buffer (4% paraformaldehyde in 1x PBS buffer). […] Following fixation, tissue was transferred to a cryoprotectant solution (30% glycerol, 30% ethylene glycol, and 40% 1x PBS buffer, v,v) and kept at −20 °C until dissection. A total of Sixteen brain regions were dissected after fixation and processed for neuropathological diagnosis of PD according to a published protocol. A diagnosis was conducted, which included staining with H & E, Bielshowsky’s silver stain, as well as p-Tau, Amyloid-β, and αS immunohistochemistry (See main manuscript Fig. 4b, c). From the total tissue amount, ~100 mg of fixed substantia nigra tissue was homogenized using a Bio-Gen PRO200 Tissue Homogenizer (PRO Scientific Inc., Oxford, CT) in 1x PBS buffer (10%, w/v). The homogenate was centrifuged at a rate of 19,000 × g for 12 min. […]

COC(=O)c1cc(OCC(=O)O)c2cccc(NC(=O)c3cc(OC(C)C)c4cccc(NC(=O)c5cc(OCC(=O)O)c6cccc(NC(=O)c7cc(OC(C)C)c8cccc([N+](=O)[O-])c8n7)c6n5)c4n3)c2n1 [SK-129]
αS species in gel shift assay (αS oligomers): potently inhibits αS aggregation | state of PMCA sample (cycle 5) of PD brain extract [1]: neither aggregated nor PK resistant
